This is an account of results in ChEMBL document CHEMBL1201862, “PubChem BioAssay data set” (2004).

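Grown in 96-well plates, cells were treated for 48 hours with each compound at five concentrations. Insufficient inhibition: endpoint recorded as highest concentration tested. GI50 = concentration required for 50% inhibition of growth.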 Activity calls are given as the source filed them. Cut-off read from the data, not from the text of the source: active = GI50 up to about 1.1 µM and inactive = higher.

Among the test systems are A498; A549; CAKI-1; HCT-116; HL-60; KM12; LOX IMVI; Malme-3M; NCI-H226; NCI-H23; OVCAR-4; SF-268; SK-MEL-28; SN12C; SNB-19; SR; UACC-62; HOP-92.
Common to all, as to experiment: NCI-60 cell line screen, 48 h

As to `C/C(=C1/N=C(c2cc([N+](=O)[O-])ccc2Cl)N(C2=CC=C(Cl)CC2)C1=O)c1cc2ccccc2oc1=O`, the GI50 was 23.4 µM (inactive) in the experiment on A498; 27.9 µM (inactive) with A549; 32.7 µM (inactive) in the experiment with CAKI-1; 37.4 µM (inactive) in the experiment with HCT-116; 20 µM (inactive) with HL-60; 19.9 µM (inactive) in the experiment on KM12. The GI50 is 20.4 µM (inactive) with LOX IMVI; 28.5 µM (inactive) in the experiment with Malme-3M; 29 µM (inactive) in the experiment with NCI-H226; 14.4 µM (inactive) in the experiment on NCI-H23; 24.4 µM (inactive) in the experiment on OVCAR-4; 36.9 µM (inactive) in the experiment with SF-268. In addition, the GI50 in the experiment with SK-MEL-28 was 26.3 µM (inactive); in the experiment on SN12C it was 23.4 µM (inactive); in the experiment on SNB-19 it was 44.1 µM (inactive); in the experiment on SR, 28.6 µM (inactive); with UACC-62 it was 29.2 µM (inactive).
Turning to `COc1cccc2c1C(=O)c1c(O)c3c(c(O)c1C2=O)C[C@@](O)(C(=O)CO)CC3OC1CC(NCCCCC(OC(C)=O)OC(C)=O)C(O)C(C)O1` (stereo partly drawn), the GI50 in the experiment on A498 was 0.00365 µM (active); in the experiment on A549, 0.00243 µM (active); in the experiment with CAKI-1, 0.00251 µM (active); with HL-60, 0.00202 µM (active); in the experiment with HOP-92, 0.0032 µM (active); in the experiment with KM12, 0.0024 µM (active). Further, the GI50 in the experiment with LOX IMVI was 0.00179 µM (active); in the experiment on Malme-3M, 0.0048 µM (active); in the experiment on NCI-H226, 0.00227 µM (active); in the experiment with OVCAR-4 it was 0.00157 µM (active); with SF-268 it was 0.00313 µM (active); in the experiment on SK-MEL-28, 0.00335 µM (active). The GI50 was 0.00348 µM (active) with SN12C, 0.00329 µM (active) in the experiment on SNB-19, 0.000337 µM (active) in the experiment with SR and 0.00182 µM (active) with UACC-62.
Take `Cc1cccc(/N=C2\NC(=O)C(CC(=O)Nc3ccc(C)cc3C)S2)c1` (stereo not drawn): the GI50 in the experiment on A498 was > 100 µM (inactive); with A549, > 100 µM (inactive); in the experiment on CAKI-1, 60.4 µM (inactive); in the experiment with HCT-116 it was > 100 µM (inactive); in the experiment on HL-60, > 100 µM (inactive); in the experiment with HOP-92, 55.7 µM (inactive). The GI50 was > 100 µM (inactive) in the experiment on LOX IMVI; > 100 µM (inactive) in the experiment on Malme-3M; 84.3 µM (inactive) with NCI-H226; 57 µM (inactive) with NCI-H23; 48.5 µM (inactive) with OVCAR-4; > 100 µM (inactive) in the experiment with SF-268. Moreover, the GI50 is > 100 µM (inactive) with SK-MEL-28; > 100 µM (inactive) in the experiment on SN12C; 74.8 µM (inactive) in the experiment with SNB-19; 52.6 µM (inactive) with SR; 68.2 µM (inactive) in the experiment with UACC-62.
Turning to `COC(=O)C1=C(C)N(NC(=O)c2ccccc2)C2(O)CCCC(=O)C12C` (stereo not drawn), the GI50 in the experiment on A498, in the experiment with A549, in the experiment with CAKI-1, in the experiment on HCT-116, in the experiment with HOP-92 and in the experiment on KM12 was > 100 µM (inactive) throughout. Moreover, the GI50 is > 100 µM (inactive) in the experiment with LOX IMVI; > 100 µM (inactive) in the experiment with Malme-3M; 4.37 µM (inactive) in the experiment on NCI-H226; > 100 µM (inactive) in the experiment with NCI-H23; > 100 µM (inactive) with OVCAR-4; > 100 µM (inactive) in the experiment on SK-MEL-28. For the same compound, the GI50 in the experiment with SN12C, in the experiment with SNB-19 and in the experiment with UACC-62 was > 100 µM (inactive) throughout.
Turning to `Cc1cc(O)nc(NN2C(Cl)C(=O)C2c2cccc(O)c2)n1` (stereo not drawn), the GI50 in the experiment on A549 is 4.44 µM (inactive); with HCT-116 it was 2.87 µM (inactive); with HL-60, 4.26 µM (inactive); with HOP-92 it was 4.67 µM (inactive); in the experiment with KM12, 7.1 µM (inactive); in the experiment with LOX IMVI it was 4.53 µM (inactive). Further, the GI50 was 5.73 µM (inactive) in the experiment with NCI-H23; > 100 µM (inactive) in the experiment with OVCAR-4; 5.62 µM (inactive) with SF-268; 26.5 µM (inactive) with SK-MEL-28; 6.31 µM (inactive) with SN12C; 3.48 µM (inactive) with SNB-19. In addition, the GI50 was 4.11 µM (inactive) in the experiment with SR and 3.37 µM (inactive) with UACC-62.
Regarding `O=[N+]([O-])c1cccc(C2=NOC3CCCC23)c1` (stereo not drawn), the GI50 is > 100 µM (inactive) in the experiment with A498; > 100 µM (inactive) in the experiment with A549; < 0.01 µM (active) in the experiment with CAKI-1; > 100 µM (inactive) with HCT-116; > 100 µM (inactive) with HL-60; > 100 µM (inactive) in the experiment on HOP-92. Moreover, the GI50 with KM12, with Malme-3M, in the experiment with NCI-H226, with NCI-H23, in the experiment on OVCAR-4 and in the experiment with SF-268 was > 100 µM (inactive) throughout. Further, the GI50 in the experiment on SK-MEL-28 was > 100 µM (inactive); in the experiment on SN12C, > 100 µM (inactive); in the experiment with SNB-19 it was 25.2 µM (inactive); in the experiment on UACC-62, > 100 µM (inactive).
On to `CCN(CC)C(=S)SS(C)(=O)=O`, for which the GI50 in the experiment with CAKI-1 was 22.4 µM (inactive); in the experiment on HCT-116, 26.4 µM (inactive); with HL-60, 5.12 µM (inactive); in the experiment with HOP-92, 30.6 µM (inactive); in the experiment on KM12, 17.1 µM (inactive); in the experiment with LOX IMVI, 13.6 µM (inactive). For the same compound, the GI50 was 26.7 µM (inactive) in the experiment on Malme-3M; 14.8 µM (inactive) with NCI-H226; 19.9 µM (inactive) with NCI-H23; 19.6 µM (inactive) in the experiment with OVCAR-4; 16 µM (inactive) with SN12C; 23.9 µM (inactive) in the experiment with SNB-19. In addition, the GI50 in the experiment with UACC-62 was 15.1 µM (inactive).
Regarding `CCOC(=O)C12CC1(C(=O)OCC)C1CCC2C1` (stereo not drawn), the GI50 was > 100 µM (inactive) with A498; > 100 µM (inactive) in the experiment with A549; > 100 µM (inactive) in the experiment with CAKI-1; > 100 µM (inactive) in the experiment with HCT-116; 71.6 µM (inactive) in the experiment with HL-60; 23.8 µM (inactive) with HOP-92. Further, the GI50 in the experiment with LOX IMVI is > 100 µM (inactive); with Malme-3M, 91.8 µM (inactive); with NCI-H226, > 100 µM (inactive); with NCI-H23 it was > 100 µM (inactive); in the experiment with OVCAR-4 it was > 100 µM (inactive); in the experiment on SF-268, > 100 µM (inactive). Also, the GI50 in the experiment with SK-MEL-28 is > 100 µM (inactive); in the experiment on SN12C it was > 100 µM (inactive); in the experiment with SNB-19 it was > 100 µM (inactive); in the experiment on SR, 49.9 µM (inactive); in the experiment with UACC-62, > 100 µM (inactive).
For `CC1=C2C(O)C(C(C)CO)C(O)CC2(C)C(O)CC1` (stereo not drawn), the GI50 in the experiment on A498, with A549, in the experiment with CAKI-1, in the experiment with HCT-116, with HL-60 and in the experiment with HOP-92 was > 100 µM (inactive) each time. The GI50 with KM12, in the experiment on LOX IMVI, with Malme-3M, in the experiment on NCI-H226, in the experiment with OVCAR-4 and in the experiment on SF-268 was > 100 µM (inactive) throughout. The GI50 with SK-MEL-28, in the experiment with SN12C, with SNB-19, with SR and in the experiment on UACC-62 was > 100 µM (inactive) in each case.
Turning to `C/C=C/CP(=O)(c1ccccc1)c1ccccc1`, the GI50 in the experiment with A498, with A549, with HCT-116, in the experiment on HL-60, in the experiment on KM12 and in the experiment on LOX IMVI was > 100 µM (inactive) each time. The GI50 in the experiment on Malme-3M, in the experiment with NCI-H226, in the experiment on NCI-H23, in the experiment on OVCAR-4, in the experiment with SK-MEL-28 and in the experiment with SN12C was > 100 µM (inactive) throughout. In addition, the GI50 in the experiment on SNB-19, with SR and in the experiment on UACC-62 was > 100 µM (inactive) in each case.
Turning to `NC(CO)c1ccccc1` (stereo not drawn), the GI50 in the experiment with A549, with CAKI-1, in the experiment with HCT-116, in the experiment with HL-60, in the experiment on HOP-92 and in the experiment with KM12 was > 100 µM (inactive) throughout. In addition, the GI50 was > 100 µM (inactive) in the experiment with LOX IMVI; > 100 µM (inactive) in the experiment on Malme-3M; > 100 µM (inactive) with NCI-H226; > 10 µM (inactive) in the experiment on NCI-H23; > 100 µM (inactive) in the experiment on OVCAR-4; > 100 µM (inactive) in the experiment with SF-268. Also, the GI50 with SK-MEL-28, with SNB-19, in the experiment on SR and with UACC-62 was > 100 µM (inactive) throughout.
As to `COc1ccc(/C(=N\NC(=O)NN)C(c2ccc(OC)cc2)C2(O)C(=O)Nc3c(Cl)cc(Cl)cc32)cc1` (stereo not drawn), the GI50 with A549 is > 100 µM (inactive); in the experiment on HCT-116, 56.8 µM (inactive); with HL-60, 13.8 µM (inactive); with HOP-92, > 100 µM (inactive); in the experiment on KM12, > 100 µM (inactive); in the experiment with LOX IMVI, 99.3 µM (inactive). In addition, the GI50 in the experiment on Malme-3M, in the experiment on NCI-H226, with NCI-H23, with OVCAR-4, in the experiment on SF-268 and in the experiment with SK-MEL-28 was > 100 µM (inactive) throughout. Further, the GI50 in the experiment on SN12C, in the experiment with SNB-19 and with UACC-62 was > 100 µM (inactive) in each case.
